Results from patent US20240050577A1, “CDK INHIBITORS AND PHARMACEUTICAL USES THEREOF” (RISEN (SUZHOU) PHARMA TECH CO., LTD., priority 2022, published 2024).
pIC50: −log10 of the molar value.

What follows are compounds tested on OVCAR3 cells (assay: Cell proliferation study (Cell Titer Glo, 72 h)). Settings: Homo sapiens, OVCAR-3, luminescence, read-out: IC50, inhibitory effect on cellular proliferation.
Assay type: cell-based
Procedure: OVCAR3 (Cobioer, CBP60294) cell line in logarithmic growth phase was used for these experiments. The cell density was adjusted to 1.1×10^4/mL and the cells were inoculated into a 96-well cell culture plate (Corning, 3599), 95 μL per well (the number of cells per well was 1×10^3). The culture plate was placed in an incubator, with 5% carbon dioxide, at 37° C. and incubated overnight. On the next day, a 10 mM stock solution of test compound was prepared in DMSO (Sigma, RNBF5902). After gradient dilution, a series of working solutions with different concentrations of test compound was prepared using complete medium. Working solution was added into the corresponding wells of the orifice plate, and the plate was placed in a 5% carbon dioxide incubator and cultivated at 37° C. for 72 h, and then removed from the incubator. To each well was added 50 μL Cell Tier Glo (Promega, G7573), and the plate was incubated at room temperature for 10 min, followed by luminescence detection with an enzyme marker. The inhibition curve was obtained with GraphPad 7.0 software using four-parameter equation.

Row | Structure (SMILES) | pIC50
1 | Cc1nc2c(F)cc(-c3nc(NC4CCN(S(=O)(=O)C5CCN(CC6CC7(CCN(c8cc9c(cc8F)C(=O)N(C8CCC(=O)NC8=O)C9=O)CC7)C6)CC5)CC4)ncc3F)cc2n1C(C)C (centres unmarked) [Compound 98] | 6.00 to 7.00
2 | Cc1nc2c(F)cc(-c3nc(N[C@@H]4CCN(S(=O)(=O)C5CCN(CC6CCN(c7cc8c(cc7F)C(=O)N(C7CCC(=O)NC7=O)C8=O)CC6)CC5)C[C@H]4O)ncc3Cl)cc2n1C(C)C (some centres unmarked) [Compound 112] | 6.00 to 7.00
3 | Cc1nc2c(F)cc(-c3nc(NC4CCN(S(=O)(=O)C5CCN(CCC6CCN(c7cc8c(cc7F)C(=O)N(C7CCC(=O)NC7=O)C8=O)CC6)CC5)CC4)ncc3F)cc2n1C(C)C (centres unmarked) [Compound 104] | 6.00 to 7.00
4 | C[C@@]1(O)CCC[C@H]1n1c(=O)c(Cl)cc2cnc(NC3CCN(S(=O)(=O)C4CCN(C5CC6(CCN(c7cc8c(cc7F)C(=O)N(C7CCC(=O)NC7=O)C8=O)CC6)C5)CC4)CC3)nc21 (some centres unmarked) [Compound 34] | < 5.00
5 | Cc1nc2c(F)cc(-c3nc(Nc4ccc(S(=O)(=O)C5CCN(CC6CCN(c7cc8c(cc7F)C(=O)N(C7CCC(=O)NC7=O)C8=O)CC6)CC5)cc4)ncc3F)cc2n1C(C)C (centres unmarked) [Compound 110] | 6.00 to 7.00
6 | C[C@@]1(O)CCC[C@H]1n1c(=O)ccc2cnc(NC3CCN(S(=O)(=O)C4CCN(C5CCC6(CCN(c7cc8c(cc7F)C(=O)N(C7CCC(=O)NC7=O)C8=O)C6)C5)CC4)CC3)nc21 (some centres unmarked) [Compound 84] | 6.00 to 7.00
7 | Cc1nc2c(F)cc(-c3nc(NC4CCN(S(=O)(=O)C5CCN(CC6CCN(c7cc8c(cc7F)C(=O)N(C7CCC(=O)NC7=O)C8=O)C6)CC5)CC4)ncc3F)cc2n1C(C)C (centres unmarked) [Compound 108] | > 7.00
8 | CC(C)N1CCOc2c(F)cc(-c3nc(Nc4ccc(S(N)(=O)=O)cc4)ncc3F)cc21 [Compound 31] | 6.00 to 7.00
9 | C[C@@]1(O)CCC[C@H]1n1c(=O)ccc2cnc(NC3CCN(S(=O)(=O)N4CCN(CC5CCN(c6cc7c(cc6F)C(=O)N(C6CCC(=O)NC6=O)C7=O)C5)CC4)CC3)nc21 (some centres unmarked) [Compound 61] | 6.00 to 7.00
10 | C[C@@]1(O)CCC[C@H]1n1c(=O)ccc2cnc(NC3CCN(S(=O)(=O)C4CCN(C(=O)C5CCN(c6cc7c(cc6F)C(=O)N(C6CCC(=O)NC6=O)C7=O)CC5)CC4)CC3)nc21 (some centres unmarked) [Compound 67] | 6.00 to 7.00
11 | C[C@@]1(O)CCC[C@H]1n1c(=O)c(C(F)F)cc2cnc(NC3CCN(S(=O)(=O)C4CCN(C5CC6(CCN(c7cc8c(cc7F)C(=O)N(C7CCC(=O)NC7=O)C8=O)CC6)C5)CC4)CC3)nc21 (some centres unmarked) [Compound 35] | 6.00 to 7.00
12 | C[C@@]1(O)CCC[C@H]1n1c(=O)ccc2cnc(Nc3ccc(S(=O)(=O)N4CCC5(CCN(C6CN(c7cc8c(cc7F)C(=O)N(C7CCC(=O)NC7=O)C8=O)C6)CC5)CC4)cc3)nc21 (some centres unmarked) [Compound 58] | 5.30 to 6.00
13 | C[C@@]1(O)CCC[C@H]1n1c(=O)ccc2cnc(NC3CCN(S(=O)(=O)C4CCN(CC5CCN(c6cc7c(cc6F)C(=O)N(C6CCC(=O)NC6=O)C7=O)CC5)CC4)CC3)nc21 (some centres unmarked) [Compound 93] | 5.30 to 6.00
14 | Cc1nc2c(F)cc(-c3nc(Nc4ccc(S(=O)(=O)N5CCC6(CCN(C(=O)COc7cccc8c7C(=O)N(C7CCC(=O)NC7=O)C8=O)CC6)CC5)cc4)ncc3F)cc2n1C(C)C (centres unmarked) [Compound 39] | 5.30 to 6.00
15 | C[C@@]1(O)CCC[C@H]1n1c(=O)ccc2cnc(NC3CCN(S(=O)(=O)C4CCN(C5CC6(C5)CN(C(=O)C5CCN(c7cc8c(cc7F)C(=O)N(C7CCC(=O)NC7=O)C8=O)CC5)C6)CC4)CC3)nc21 (some centres unmarked) [Compound 85] | 5.30 to 6.00
16 | Cc1nc2c(F)cc(-c3nc(NC4CCN(S(=O)(=O)C5CCN(CC6CC(N7CCC(c8ccc9c(C%10CCC(=O)NC%10=O)nn(C)c9c8)CC7)C6)CC5)CC4)ncc3F)cc2n1C(C)C (centres unmarked) [Compound 103] | > 7.00
17 | C[C@@]1(O)CCC[C@H]1n1c(=O)ccc2cnc(NC3CCN(S(=O)(=O)CCCCCCCCCOc4cccc5c4C(=O)N(C4CCC(=O)NC4=O)C5=O)CC3)nc21 (some centres unmarked) [Compound 92] | < 5.00
18 | C[C@@]1(O)CCC[C@H]1n1c(=O)ccc2cnc(Nc3ccc(S(=O)(=O)C4CCN(C5CCC6(CC5)CN(c5cc7c(cc5F)C(=O)N(C5CCC(=O)NC5=O)C7=O)C6)CC4)cc3)nc21 (some centres unmarked) [Compound 45] | < 5.00
19 | C[C@@]1(O)CCC[C@H]1n1c(=O)ccc2cnc(NC3CCN(S(=O)(=O)C4CCN(C(=O)C5CC6(CCN(c7cc8c(cc7F)C(=O)N(C7CCC(=O)NC7=O)C8=O)CC6)C5)CC4)CC3)nc21 (some centres unmarked) [Compound 77] | 5.30 to 6.00

The next lines start with the values.

Row | pIC50 | Structure (SMILES)
20 | < 5.00 | CC(C)N1CCOc2c(F)cc(-c3nc(Nc4ccc(C5CCN(CCCCCCCCCOc6cccc7c6C(=O)N(C6CCC(=O)NC6=O)C7=O)CC5)cn4)ncc3F)cc21 (centres unmarked) [Compound 1]
21 | 5.30 to 6.00 | CC(C)N1CCOc2c(F)cc(-c3nc(Nc4ccc(S(=O)(=O)N5CCN(C6CN(C7CCN(c8cccc9c8C(=O)N(C8CCC(=O)NC8=O)C9=O)CC7)C6)CC5)cc4)ncc3F)cc21 (centres unmarked) [Compound 52]
22 | < 5.00 | CC(C)N1CCOc2c(F)cc(-c3nc(Nc4ccc(S(=O)(=O)N5CCN(CC6CCN(c7ccc8c(c7)C(=O)N(C7CCC(=O)NC7=O)C8=O)CC6)CC5)cc4)ncc3F)cc21 (centres unmarked) [Compound 33]
23 | 6.00 to 7.00 | CC(C)N1CCOc2c(F)cc(-c3nc(Nc4ccc(C5CCN(CCCCNC(=O)COc6cccc7c6C(=O)N(C6CCC(=O)NC6=O)C7=O)CC5)nc4)ncc3F)cc21 (centres unmarked) [Compound 30]
24 | < 5.00 | CC(C)N1CCOc2c(F)cc(-c3nc(Nc4ccc(C5CCN(CCCCCCOc6cccc7c6C(=O)N(C6CCC(=O)NC6=O)C7=O)CC5)cn4)ncc3F)cc21 (centres unmarked) [Compound 28]
25 | 5.30 to 6.00 | Cc1nc2c(F)cc(-c3nc(Nc4ccc(S(=O)(=O)N5CCN(C6CCN(C7CN(c8cccc9c8C(=O)N(C8CCC(=O)NC8=O)C9=O)C7)CC6)CC5)cc4)ncc3F)cc2n1C(C)C (centres unmarked) [Compound 56]
26 | < 5.00 | CC(C)N1CCOc2c(F)cc(-c3nc(Nc4ccc(C5CCN(CCOCCOCCNc6cccc7c6C(=O)N(C6CCC(=O)NC6=O)C7=O)CC5)cn4)ncc3F)cc21 (centres unmarked) [Compound 2]
27 | < 5.00 | CC(C)N1CCOc2c(F)cc(-c3nc(Nc4ccc(S(=O)(=O)N5CCN(C6CC7(CCN(c8cccc9c8C(=O)N(C8CCC(=O)NC8=O)C9=O)CC7)C6)CC5)cc4)ncc3F)cc21 (centres unmarked) [Compound 72]
28 | 6.00 to 7.00 | CC(C)N1CCOc2c(F)cc(-c3nc(NC4CCN(S(=O)(=O)C5CCN(CC6CCN(c7ccc8c(c7)C(=O)N(C7CCC(=O)NC7=O)C8=O)CC6)CC5)CC4)ncc3F)cc21 (centres unmarked) [Compound 19, 2-(2,6-dioxo-3-piperidyl)-5-[4-[[4-[[4-[[5-fluoro-4-(8-fluoro-4-isopropyl-2,3-dihydro-1,4-benzoxazin-6-yl)pyrimidin-2-yl]amino]-1-piperidyl]sulfonyl]-1-piperidyl]methyl]-1-piperidyl]isoindoline-1,3-dione]
29 | < 5.00 | CC(C)N1CCOc2c(F)cc(-c3nc(Nc4ccc(S(=O)(=O)N5CCN(CC6CCN(c7cccc8c7C(=O)N(C7CCC(=O)NC7=O)C8=O)CC6)CC5)cc4)ncc3F)cc21 (centres unmarked) [Compound 54]
30 | 5.30 to 6.00 | Cc1nc2c(F)cc(-c3nc(Nc4ccc(S(=O)(=O)NCCOCCOCCOCCNc5cccc6c5C(=O)N(C5CCC(=O)NC5=O)C6=O)cc4)ncc3F)cc2n1C(C)C (centres unmarked) [Compound 48]
31 | 6.00 to 7.00 | Cc1nc2c(F)cc(-c3nc(Nc4ccc(S(=O)(=O)N5CCN(CC6CCN(c7cccc8c7C(=O)N(C7CCC(=O)NC7=O)C8=O)CC6)CC5)cc4)ncc3F)cc2n1C(C)C (centres unmarked) [Compound 57]

Same assay, conditions: luminescence, read-out: IC50, inhibitory effect on cellular proliferation

Row | pIC50 | Structure (SMILES)
32 | < 5.00 | CC(C)N1CCOc2c(F)cc(-c3nc(Nc4ccc(C5CCN(CCCCCCOc6cccc7c6C(=O)N(C6CCC(=O)NC6=O)C7=O)CC5)cn4)ncc3F)cc21 (centres unmarked) [Compound 3]
